One assay addresses CB1. Conditions: Fig. 1, standard agonists; ref [14]; cited from earlier work.
A further assay deals with CB2. Conditions: Fig. 1, standard agonists; ref [14]; cited from earlier work.
The target in assay [1] is T1, CB1 receptor (Homo sapiens, UniProt P21554). Nature of the assay: biochemical. Format: binding. Also on record: expressed in transfected cells; host or cells: CHO cells (membrane preparation).
In assay [2] the target is T1, CB1 receptor. Nature of the assay: cell-based. Format: cell-based. Further details: expressed in transfected cells; host or cells: CHO cells.
For a further assay, the target named is Human CB1. Particulars: cited from earlier work; for Ki: read-out: Ki Human CB1 (literature) (converted).
The target of the next assay is Human CB2. Conditions: cited from earlier work; for Ki: read-out: Ki Human CB2 (literature) (converted).
The target of assay [3] is T2, CB2 receptor (Homo sapiens, UniProt P34972). Nature of the assay: biochemical. The assay is classed as binding. Also on record: expressed in transfected cells; host or cells: CHO cells (membrane preparation).
Assay [4] has as its target T3, human GPR55 (Homo sapiens, UniProt Q9Y2T6).
T3 construct: β-galactosidase enzyme fragment (PathHunter complementation tag)
Briefly: β-Arrestin recruitment assay (PathHunter) at GPR55. The assay is classed as cell-based. Conditions: for IC50: antagonist mode; for Human GPR55 % activation: percent in brackets beside EC50 >10 µM; for Human GPR55 % inhibition: percent in brackets beside IC50. On the procedure: (§1) Recruitment of β-arrestin to the respective receptor was detected by using β-galactosidase enzyme fragment complementation technology (β-arrestin PathHunter™ assay, DiscoverX, Fremont, CA, USA) as previously described. Data were obtained from three independent experiments, performed in duplicates. Data were analyzed using Graph Pad Prism Version 4.02 (San Diego, CA, USA).
Background: Recruitment of arrestin is a read-out of receptor activation apart from second messengers.

Assay [5] deals with T4, human GPR18 (Homo sapiens, UniProt Q14330).
T4 construct: β-galactosidase enzyme fragment (PathHunter complementation tag)
T4 sequence (Q14330 1-331): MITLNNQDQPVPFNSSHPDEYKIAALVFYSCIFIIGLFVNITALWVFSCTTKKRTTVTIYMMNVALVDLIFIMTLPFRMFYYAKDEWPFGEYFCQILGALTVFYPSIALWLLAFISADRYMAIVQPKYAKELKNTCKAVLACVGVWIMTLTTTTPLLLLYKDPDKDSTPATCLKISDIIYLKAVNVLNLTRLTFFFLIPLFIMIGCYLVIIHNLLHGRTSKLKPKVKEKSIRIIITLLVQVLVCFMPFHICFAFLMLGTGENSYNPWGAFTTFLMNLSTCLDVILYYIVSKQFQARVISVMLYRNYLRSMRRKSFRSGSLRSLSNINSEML
Nature of the assay: β-Arrestin recruitment assay (PathHunter) at GPR18. Format: cell-based. Particulars: for Human GPR18 % activation: percent in brackets beside EC50 >10 µM; for Human GPR18 % inhibition: percent in brackets beside IC50. On the procedure: as §1

Assay [6] addresses T2, CB2 receptor. Nature of the assay: cAMP accumulation assay in CHO cells expressing CB2. Particulars: for efficacy at CB2 receptor (in words): cAMP accumulation, forskolin 10 µM, test concentration 1 µM or 10 µM, normalized to CP55,940. The assay is classed as cell-based. Also on record: expressed in transfected cells; host or cells: CHO cells. In general terms: Cyclic AMP is a second messenger, typically raised through Gs and lowered through Gi signalling.

Assay [7] concerns the target T4, human GPR18. Also on record: method as in PMID 22916707. Conditions: read-out: Human GPR18 IC50; ref [47]; cited from earlier work.
Assay [8] addresses T3, human GPR55. Conditions: read-out: Human GPR55 IC50; ref [48]; cited from earlier work.
Where [9] appears, read: versus 0.1 nM [3H]CP55,940, CHO cell membranes, mean ± SEM of three to five experiments, read-out: Ki ± SEM Human CB1.
Setting [10] is: Table S1, selectivity index from Ki values.
[11] abbreviates: versus 0.1 nM [3H]CP55,940, CHO cell membranes, mean ± SEM of three to five experiments, read-out: Ki ± SEM Human CB2.
Setting [12] is: Human GPR55 IC50, β-arrestin assay.

Here are results for six compounds from publication PMC4929166, “Pharmacological evaluation of synthetic cannabinoids identified as constituents of spice” (Forensic Toxicology, 2016).

Like-named read-outs stand apart in the source and are kept apart here. A value given as a limit tells only on which side of the number the result lay.

T3 sequence (Q9Y2T6 whole entry, the tested form may be a part): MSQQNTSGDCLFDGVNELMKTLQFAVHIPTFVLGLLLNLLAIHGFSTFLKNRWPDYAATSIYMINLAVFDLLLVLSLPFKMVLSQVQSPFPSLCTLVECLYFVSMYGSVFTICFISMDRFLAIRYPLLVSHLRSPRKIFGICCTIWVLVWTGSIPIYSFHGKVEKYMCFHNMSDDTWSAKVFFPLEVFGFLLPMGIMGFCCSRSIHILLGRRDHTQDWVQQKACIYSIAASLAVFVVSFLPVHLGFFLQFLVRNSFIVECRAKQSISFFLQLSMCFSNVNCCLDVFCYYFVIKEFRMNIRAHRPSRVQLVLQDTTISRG
T1 sequence (P21554 whole entry): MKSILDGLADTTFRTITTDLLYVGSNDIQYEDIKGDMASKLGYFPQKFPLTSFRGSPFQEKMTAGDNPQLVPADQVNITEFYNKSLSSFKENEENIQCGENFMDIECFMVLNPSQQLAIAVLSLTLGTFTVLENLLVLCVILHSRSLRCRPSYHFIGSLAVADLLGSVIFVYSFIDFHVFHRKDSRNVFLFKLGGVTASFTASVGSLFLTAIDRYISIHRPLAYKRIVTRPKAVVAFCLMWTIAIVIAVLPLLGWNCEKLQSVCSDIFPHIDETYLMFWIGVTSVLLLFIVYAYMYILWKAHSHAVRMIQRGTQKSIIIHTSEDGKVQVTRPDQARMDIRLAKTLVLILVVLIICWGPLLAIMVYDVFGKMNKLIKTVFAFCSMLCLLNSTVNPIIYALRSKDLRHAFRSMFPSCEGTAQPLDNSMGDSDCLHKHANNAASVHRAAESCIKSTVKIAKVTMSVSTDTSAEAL
T2 sequence (P34972 whole entry): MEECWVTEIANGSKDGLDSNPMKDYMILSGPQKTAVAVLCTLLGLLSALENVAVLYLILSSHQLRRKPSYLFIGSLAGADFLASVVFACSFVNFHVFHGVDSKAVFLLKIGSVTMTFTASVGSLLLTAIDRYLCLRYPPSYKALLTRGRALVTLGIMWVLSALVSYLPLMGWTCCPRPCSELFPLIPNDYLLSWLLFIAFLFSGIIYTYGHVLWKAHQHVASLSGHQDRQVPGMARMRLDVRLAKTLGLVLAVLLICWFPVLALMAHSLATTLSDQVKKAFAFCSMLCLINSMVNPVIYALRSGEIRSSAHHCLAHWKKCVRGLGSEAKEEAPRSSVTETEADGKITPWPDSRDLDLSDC

With `CCCCCn1cc(C(=O)c2cccc3ccccc23)c2ccccc21` [Compound 3, JWH-018], the Ki – broadly, the dissociation constant of the complex between target and ligand, obtained from inhibition or displacement – at CB1 was 9 nM; on CB2, 2.9 nM.

For `CC1(C)C(C(=O)c2cn(CCCC(F)(F)F)c3ccccc23)C1(C)C` [Compound 41, XLR-12], the Ki on CB1 receptor [1] (setting [9]) is 43.7 ± 5.9 nM; on Human CB1 (ref Frost et al. [40]), 15 nM; on Human CB2 (ref Frost et al. [40]), 0.09 nM; on CB2 receptor [3] (setting [11]), 0.831 ± 0.331 nM. Further, the “efficacy at CB1 receptor (in words)” value on CB1 receptor [2] (cAMP accumulation, forskolin 10 µM, test concentration 1 µM or 10 µM, normalized to CP55,940) is “lower efficacy than Δ^9-THC”. Moreover, the EC50 – broadly, the concentration at which the effect is half-maximal – at CB1 receptor [2] (full concentration response curve, read-out: CB1: EC50, inhibition of cAMP accumulation) was 11.7 ± 6.5 nM; at human GPR55 [4], > 10000 nM; at human GPR18 [5], > 10000 nM; at CB2 receptor [6] it was 0.391 nM. Besides, in the assay on Human CB2 (ref [40]), the CB2-selectivity previously reported is 167 fold. The “CB2 selectivity Ki CB1/KiCB2” value at CB2 receptor [3] (setting [10]) turned out to be 52.6. Also, the concentration for half-maximal inhibition (IC50) (usually the concentration at which inhibition is half-maximal) at human GPR55 [4] (setting [12]) is 4560 ± 1970 nM; against human GPR18 [5] it was > 10000 nM. The “Human GPR55 % activation” value on human GPR55 [4] (β-arrestin assay) was −5%. Moreover, the “Human GPR18 % activation” value on human GPR18 [5] (β-arrestin assay) is on record as 27%. Also, the “Human GPR18 % inhibition” value on human GPR18 [5] (β-arrestin assay) is 13%. In addition, the “CB2-selectivity in functional assay (EC50 CB1 vs CB2)” value on CB2 receptor [6] (cAMP accumulation EC50 values) came out at 30 fold. At CB2 receptor [6], the “efficacy at CB2 receptor (in words)” value is reported as “lower efficacy than Δ^9-THC”.

In the case of `CCCCCn1cc(C(=O)Nc2cccc3ccccc23)c2ccccc21` [Compound 4, NNEI], the “CB1 selectivity Ki CB2/KiCB1” value on CB1 receptor [1] (setting [10]) came to 12.0. Also, the Ki is 1.82 ± 0.35 nM on CB1 receptor [1] (setting [9]), 1.25 nM on Human CB1 (ref Blaazer et al. [33]), 100 nM at Human CB2 (ref Blaazer et al. [33]) and 21.9 ± 5.5 nM on CB2 receptor [3] (setting [11]). In addition, at Human CB1 (ref Blaazer et al. [33]), the “pKi value at the CB1 receptor” value is recorded as 8.9. Moreover, the EC50 at human GPR55 [4] and on human GPR18 [5] was > 10000 nM each time. Moreover, the IC50 on human GPR55 [4] (setting [12]) and against human GPR18 [5] was > 10000 nM throughout. In addition, the “Human GPR55 % activation” value at human GPR55 [4] (β-arrestin assay) is 26%. At human GPR55 [4] (β-arrestin assay), the “Human GPR55 % inhibition” value is 30%. Further, on human GPR18 [5] (β-arrestin assay), the “Human GPR18 % activation” value is listed as 42%. For the same compound, the “Human GPR18 % inhibition” value on human GPR18 [5] (β-arrestin assay) is listed as −15%.

As for `CCCCCCC(C)(C)c1ccc([C@@H]2CC(O)CC[C@H]2CCCO)c(O)c1` (single isomer, unassigned; (-)) [Compound 2, (−)-cis-3-[2-hydroxy-4-(1,1-dimethylheptyl)phenyl]-trans-4-(3-hydroxypropyl)cyclohexanol], the IC50 was 5990 nM at human GPR18 [7] and 1610 nM on human GPR55 [8].

Turning to `COc1cccc2c(C(=O)C3C4(C)CCC(C4)C3(C)C)c(C)n(CCN3CCOCC3)c12` (stereo not shown) [Compound 48, MN-25], the Ki is 780 ± 66 nM on CB1 receptor [1] (setting [9]), 245 nM at Human CB1 (ref Wroblenski et al.[39]), 11 nM at Human CB2 (ref Wroblenski et al.[39]) and 2.77 ± 1.59 nM on CB2 receptor [3] (setting [11]). Also, the “CB2 selectivity Ki CB1/KiCB2” value at CB2 receptor [3] (setting [10]) is listed as 282. The EC50 was > 10000 nM on human GPR55 [4] (read-out: Human GPR55 EC50, β-arrestin assay, agonist mode) and > 10000 nM at human GPR18 [5] (read-out: Human GPR18 EC50, β-arrestin assay, agonist mode). Besides, the half-maximal inhibitory concentration (IC50) at human GPR55 [4] (read-out: Human GPR55 IC50, β-arrestin assay) was > 10000 nM; at human GPR18 [5] (read-out: Human GPR18 IC50, β-arrestin assay, antagonist mode) it was > 10000 nM. Further, the “Human GPR55 % activation” value at human GPR55 [4] (β-arrestin assay) is −8%. The “Human GPR55 % inhibition” value at human GPR55 [4] (β-arrestin assay) is on record as 47%. Besides, on human GPR18 [5] (β-arrestin assay), the “Human GPR18 % activation” value is reported as −12%. Moreover, at human GPR18 [5] (β-arrestin assay), the “Human GPR18 % inhibition” value is recorded as 30%.

For the compound `CN1CCCCC1Cn1cc(C(=O)C2C(C)(C)C2(C)C)c2ccccc21` (stereo not shown) [Compound 43, AB005], the Ki was 59.4 nM on CB1 receptor [1], 5.5 nM on Human CB1 (ref Frost et al. [40]), 0.48 nM on Human CB2 (ref Frost et al. [40]) and 1.04 nM at CB2 receptor [3]. Further, on CB1 receptor [2], the “efficacy at CB1 receptor (in words)” value is “lower efficacy than Δ^9-THC”. Besides, the “CB2 selectivity Ki CB1/KiCB2” value on CB2 receptor [3] was 57.1. For the same compound, the EC50 on human GPR55 [4] and at human GPR18 [5] was > 10000 nM each time. The IC50 against human GPR55 [4] (setting [12]) and against human GPR18 [5] was > 10000 nM in each case. The “Human GPR55 % activation” value at human GPR55 [4] (β-arrestin assay) is given as 16%. In addition, the “Human GPR55 % inhibition” value on human GPR55 [4] (β-arrestin assay) came out at 39%. Further, the “Human GPR18 % activation” value at human GPR18 [5] (β-arrestin assay) was −38%. The “Human GPR18 % inhibition” value on human GPR18 [5] (β-arrestin assay) is given as −2%. Moreover, the “efficacy at CB2 receptor (in words)” value at CB2 receptor [6] is “lower efficacy than Δ^9-THC”.
